Legend:
FLT3 = target: T1, FLT3 (Homo sapiens, UniProt P36888); experiment: Cell free kinase inhibition assay; assay type: biochemical
T1 construct: purchased Carna Biosciences, Inc. (Kobe, Japan)

FGFR3(K650E) = target: T2, FGFR3(K650E) (Homo sapiens, UniProt P22607, K650E); experiment: Cell free kinase inhibition assay; assay type: biochemical
T2 construct: purchased Carna Biosciences, Inc. (Kobe, Japan)

TIE2 = target: T3, TIE2 (Homo sapiens, UniProt Q02763); experiment: Cell free kinase inhibition assay; assay type: biochemical
T3 construct: purchased Carna Biosciences, Inc. (Kobe, Japan)

8305C cells = experiment: Antiproliferation assay (WST-8); assay type: cell-based; conditions: Homo sapiens, 72 h; 8305C (ATC), antiproliferative, 3 days
[1] = test system: human thyroid cancer cell lines; experiment: Antiproliferation assay, panel of 11 cell lines; assay type: cell-based; conditions: 9 out of the 11 cell lines, in vitro antiproliferative
Procedure: The human DTC cell lines K1, FTC-133, FTC-236, FTC-238, and RO82-W-1 and the human thyroid follicular epithelial cell line Nthy-ori 3-1 were obtained from DS Pharma Biomedical Co., Ltd. (Osaka, Japan). The human MTC cell line TT was obtained from the American Type Culture Collection (Manassas, VA). The human ATC cell lines 8305C, 8505C, HTC/C3, KHM-5M, and TCO-1 were obtained from the Japanese Collection of Research Bioresources Cell Bank (Osaka, Japan). […]
Cells (1,000–3,000/well) were seeded and cultured in 96-well culture plates. […] Cell numbers were determined by using WST-8 (Dojindo, Kumamoto, Japan); 10 μL of WST-8 was added to each well, and absorbance was measured at a wavelength of 450 nm and compared with a reference measurement at 660 or 665 nm by using an MTP-500 microplate reader (Corona Electric, Ibaraki, Japan) or an EnVision Multilabel Reader (Perkin Elmer, Turku, Finland). […]

VEGFR, FGFR, KIT, PDGFR = experiment: Cell free kinase inhibition assay, summary for RTKs; assay type: biochemical; conditions: PDGFR (Supplementary Table S1)
Procedure: […]. Briefly, each test compound was mixed with enzyme, substrate, ATP, and Mg under appropriate buffer conditions for the ELISA or MSA. […] IC50 values (the half maximal inhibitory concentration) were calculated from concentrations versus % inhibition curves.

[2] = test system: tumor microvessels in 5 ATC xenografts; experiment: Microvessel density (CD31 immunohistochemistry) in xenografts; assay type: in vivo, nude mice; conditions: all 5 ATC xenograft models, 10 and 100 mg/kg
Description: (§1) Tumor tissues were resected from nude mice, embedded in Optimal Cutting Temperature (OCT) compound (Sakura Finetek Japan, Tokyo, Japan), frozen in dry ice-acetone, and then sectioned (8 μm), or they were embedded in paraffin, fixed overnight in immunohistochemical (IHC) Zinc Fixative (BD Biosciences), and then sectioned (6 μm). Tumor microvessels were stained by the indirect immunoperoxidase method with a rat anti-mouse CD31 monoclonal antibody (clone MEC13.3, BD Biosciences) and then visualized by using Vectastain ABC (Dako, Tokyo, Japan). Pericyte was stained by the indirect alkaline phosphatase method with an anti-α smooth muscle actin (SMA) antibody conjugated alkaline phosphatase (A 5691, Sigma-Aldrich) and visualized by using Simple Stain AP(R) (Nichirei Biosciences Inc, Tokyo, Japan). Adjacent sections were stained with Hematoxylin-Eosin. Microvessel density (MVD) was determined as described previously. Each section was scanned by using a microscope (VANOX AHBS3, Olympus, Tokyo, Japan) at low magnification to identify 5 areas with the highest densities of CD31-stained microvessels. The microvessels in the selected areas were then counted at 400x magnification. MVD was recorded as the number of microvessels per mm^2. In the DTC xenografts, the percentage of pericyte-covered microvessels was analyzed. Pericyte-covered vessels were identified by examining the colocalization of CD31- (endothelial cells-) positive vessels and αSMA- (pericytes-) positive cells. The number of pericyte-covered vessels was counted in the selected area and then compared with the total number of CD31-stained microvessels in the same area. The percentage of pericyte-covered microvessels was calculated as the number of pericyte-covered microvessels/total number of microvessels × 100 in the selected area. The MVD in the ATC xenograft models was determined by using the digital pathology system ScanScope XT (Aperio, Vista, CA). Briefly, CD31-stained whole tissue slices were scanned on the ScanScope system (Aperio) to generate high-resolution digital slides. By using a digital slide viewer, Aperio ImageScope (v10.0.36.1805, Aperio), 5 regions of interest (ROIs: each 500 μm square) were manually selected as areas with the highest densities of CD31-stained microvessels in each tumor slice. The number of microvessels in each ROI was measured by using Microvessel Analysis Algorithm v1.0 (Aperio), which automatically detects and quantifies microvessels on slides stained with endothelial markers. MVD was expressed as the number of microvessels per mm^2. […] The percentage of microvessel inhibition (%MVI) was calculated from the microvessel density (MVD) according to the following formula: [(1 − MVD of tumor in each compound-treated animal/Mean MVD of tumors in the vehicle control-treated group) × 100].

[3] = test system: tumor microvessels in TT xenografts; experiment: as above; assay type: in vivo, nude mice; conditions: 10 or 100 mg/kg
Description: as §1

[4] = test system: tumor microvessels in 5 DTC xenografts; experiment: as above; assay type: in vivo, nude mice
Description: as §1

KIT(D816V) = target: T4, KIT(D816V) (Homo sapiens, UniProt P10721, D816V); experiment: Cell free kinase inhibition assay; assay type: biochemical
T4 construct: purchased Carna Biosciences, Inc. (Kobe, Japan)

PLK1 = target: T5, PLK1 (Homo sapiens, UniProt P53350); experiment: Cell free kinase inhibition assay; assay type: biochemical
T5 construct: purchased Carna Biosciences, Inc. (Kobe, Japan)

CDK4 = target: T6, CDK4 (Homo sapiens, UniProt P11802); experiment: Cell free kinase inhibition assay; assay type: biochemical
T6 construct: purchased Carna Biosciences, Inc. (Kobe, Japan)
T6 sequence (P11802 whole entry): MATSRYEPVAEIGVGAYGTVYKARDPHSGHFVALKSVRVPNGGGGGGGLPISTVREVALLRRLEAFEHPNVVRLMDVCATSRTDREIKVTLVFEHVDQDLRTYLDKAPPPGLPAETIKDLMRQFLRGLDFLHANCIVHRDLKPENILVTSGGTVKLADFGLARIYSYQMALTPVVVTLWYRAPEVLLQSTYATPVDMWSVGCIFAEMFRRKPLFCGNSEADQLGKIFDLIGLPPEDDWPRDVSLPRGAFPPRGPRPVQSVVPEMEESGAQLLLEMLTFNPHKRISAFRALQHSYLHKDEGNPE
T6 sequence (P30281 whole entry partner): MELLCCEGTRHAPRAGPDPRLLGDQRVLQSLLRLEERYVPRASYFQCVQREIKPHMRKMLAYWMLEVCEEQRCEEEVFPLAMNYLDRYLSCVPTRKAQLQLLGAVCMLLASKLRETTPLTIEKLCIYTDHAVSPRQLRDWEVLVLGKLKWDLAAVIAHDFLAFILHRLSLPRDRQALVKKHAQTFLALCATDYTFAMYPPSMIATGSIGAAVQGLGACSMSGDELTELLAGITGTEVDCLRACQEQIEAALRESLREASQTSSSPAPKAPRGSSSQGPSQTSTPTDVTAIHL

T5 sequence (P53350 whole entry): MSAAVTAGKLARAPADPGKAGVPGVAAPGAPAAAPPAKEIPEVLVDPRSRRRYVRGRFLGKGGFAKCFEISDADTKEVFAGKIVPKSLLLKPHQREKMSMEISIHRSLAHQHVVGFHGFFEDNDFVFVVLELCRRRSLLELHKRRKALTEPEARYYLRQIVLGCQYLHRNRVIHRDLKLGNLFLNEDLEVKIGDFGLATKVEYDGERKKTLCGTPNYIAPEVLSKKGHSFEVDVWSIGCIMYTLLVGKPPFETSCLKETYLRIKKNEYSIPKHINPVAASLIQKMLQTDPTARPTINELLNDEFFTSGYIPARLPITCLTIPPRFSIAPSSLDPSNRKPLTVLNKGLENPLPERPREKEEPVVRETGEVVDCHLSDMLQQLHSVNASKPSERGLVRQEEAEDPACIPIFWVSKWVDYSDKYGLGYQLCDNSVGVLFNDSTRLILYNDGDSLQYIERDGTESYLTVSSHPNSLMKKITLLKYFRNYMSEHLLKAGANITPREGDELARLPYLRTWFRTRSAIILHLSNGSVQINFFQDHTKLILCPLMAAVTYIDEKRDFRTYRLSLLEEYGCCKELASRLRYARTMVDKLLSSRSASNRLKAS
T1 sequence (P36888 27-993): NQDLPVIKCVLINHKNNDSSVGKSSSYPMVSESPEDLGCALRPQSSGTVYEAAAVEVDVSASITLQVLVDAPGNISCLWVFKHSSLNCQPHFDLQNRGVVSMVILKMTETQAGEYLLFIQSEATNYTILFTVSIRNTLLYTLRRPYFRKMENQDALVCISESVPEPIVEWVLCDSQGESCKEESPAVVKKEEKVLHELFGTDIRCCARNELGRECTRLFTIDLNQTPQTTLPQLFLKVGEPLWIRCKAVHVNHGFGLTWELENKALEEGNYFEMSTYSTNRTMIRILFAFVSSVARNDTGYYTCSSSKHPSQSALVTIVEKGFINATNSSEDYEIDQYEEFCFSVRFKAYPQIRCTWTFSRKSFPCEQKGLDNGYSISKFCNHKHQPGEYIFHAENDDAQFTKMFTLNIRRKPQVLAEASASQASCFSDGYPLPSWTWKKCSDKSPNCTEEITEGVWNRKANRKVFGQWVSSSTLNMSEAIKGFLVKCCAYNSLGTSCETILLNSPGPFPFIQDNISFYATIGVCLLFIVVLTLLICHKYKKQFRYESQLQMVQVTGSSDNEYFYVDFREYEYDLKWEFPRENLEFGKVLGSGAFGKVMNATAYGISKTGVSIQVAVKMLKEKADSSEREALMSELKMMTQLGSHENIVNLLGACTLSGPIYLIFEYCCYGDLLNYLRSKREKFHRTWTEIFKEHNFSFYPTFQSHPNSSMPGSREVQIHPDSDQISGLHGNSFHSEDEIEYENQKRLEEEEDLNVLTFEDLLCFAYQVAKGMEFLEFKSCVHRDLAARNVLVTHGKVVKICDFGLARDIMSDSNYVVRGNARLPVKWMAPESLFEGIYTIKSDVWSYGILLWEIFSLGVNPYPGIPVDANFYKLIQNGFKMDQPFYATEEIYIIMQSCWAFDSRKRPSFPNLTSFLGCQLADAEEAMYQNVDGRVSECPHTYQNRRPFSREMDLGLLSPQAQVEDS
T4 sequence (P10721 26-976 D816V): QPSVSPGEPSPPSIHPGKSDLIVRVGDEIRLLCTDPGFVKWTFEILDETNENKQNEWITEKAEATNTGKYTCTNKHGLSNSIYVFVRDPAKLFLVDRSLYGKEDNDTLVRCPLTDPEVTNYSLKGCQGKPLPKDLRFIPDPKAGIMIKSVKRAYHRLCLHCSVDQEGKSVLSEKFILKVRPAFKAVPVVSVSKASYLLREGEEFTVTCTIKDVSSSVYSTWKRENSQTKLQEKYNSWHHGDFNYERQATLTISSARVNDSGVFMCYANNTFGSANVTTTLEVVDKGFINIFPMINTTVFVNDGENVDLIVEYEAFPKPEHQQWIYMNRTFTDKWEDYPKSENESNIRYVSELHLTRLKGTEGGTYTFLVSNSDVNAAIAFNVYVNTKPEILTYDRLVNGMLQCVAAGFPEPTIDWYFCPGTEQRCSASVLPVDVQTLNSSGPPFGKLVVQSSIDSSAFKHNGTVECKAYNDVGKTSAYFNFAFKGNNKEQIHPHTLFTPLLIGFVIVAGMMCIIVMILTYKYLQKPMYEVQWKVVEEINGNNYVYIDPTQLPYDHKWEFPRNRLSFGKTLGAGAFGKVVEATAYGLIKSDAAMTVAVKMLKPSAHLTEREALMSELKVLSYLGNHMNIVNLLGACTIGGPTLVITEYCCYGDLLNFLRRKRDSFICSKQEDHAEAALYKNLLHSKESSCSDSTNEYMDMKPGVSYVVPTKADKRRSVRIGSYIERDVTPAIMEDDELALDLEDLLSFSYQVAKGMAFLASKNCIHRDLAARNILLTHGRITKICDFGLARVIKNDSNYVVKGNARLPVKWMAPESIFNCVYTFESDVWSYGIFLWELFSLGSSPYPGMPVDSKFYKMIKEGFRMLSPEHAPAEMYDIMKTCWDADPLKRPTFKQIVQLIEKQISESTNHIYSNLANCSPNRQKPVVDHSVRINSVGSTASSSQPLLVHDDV
T3 sequence (Q02763 23-1124): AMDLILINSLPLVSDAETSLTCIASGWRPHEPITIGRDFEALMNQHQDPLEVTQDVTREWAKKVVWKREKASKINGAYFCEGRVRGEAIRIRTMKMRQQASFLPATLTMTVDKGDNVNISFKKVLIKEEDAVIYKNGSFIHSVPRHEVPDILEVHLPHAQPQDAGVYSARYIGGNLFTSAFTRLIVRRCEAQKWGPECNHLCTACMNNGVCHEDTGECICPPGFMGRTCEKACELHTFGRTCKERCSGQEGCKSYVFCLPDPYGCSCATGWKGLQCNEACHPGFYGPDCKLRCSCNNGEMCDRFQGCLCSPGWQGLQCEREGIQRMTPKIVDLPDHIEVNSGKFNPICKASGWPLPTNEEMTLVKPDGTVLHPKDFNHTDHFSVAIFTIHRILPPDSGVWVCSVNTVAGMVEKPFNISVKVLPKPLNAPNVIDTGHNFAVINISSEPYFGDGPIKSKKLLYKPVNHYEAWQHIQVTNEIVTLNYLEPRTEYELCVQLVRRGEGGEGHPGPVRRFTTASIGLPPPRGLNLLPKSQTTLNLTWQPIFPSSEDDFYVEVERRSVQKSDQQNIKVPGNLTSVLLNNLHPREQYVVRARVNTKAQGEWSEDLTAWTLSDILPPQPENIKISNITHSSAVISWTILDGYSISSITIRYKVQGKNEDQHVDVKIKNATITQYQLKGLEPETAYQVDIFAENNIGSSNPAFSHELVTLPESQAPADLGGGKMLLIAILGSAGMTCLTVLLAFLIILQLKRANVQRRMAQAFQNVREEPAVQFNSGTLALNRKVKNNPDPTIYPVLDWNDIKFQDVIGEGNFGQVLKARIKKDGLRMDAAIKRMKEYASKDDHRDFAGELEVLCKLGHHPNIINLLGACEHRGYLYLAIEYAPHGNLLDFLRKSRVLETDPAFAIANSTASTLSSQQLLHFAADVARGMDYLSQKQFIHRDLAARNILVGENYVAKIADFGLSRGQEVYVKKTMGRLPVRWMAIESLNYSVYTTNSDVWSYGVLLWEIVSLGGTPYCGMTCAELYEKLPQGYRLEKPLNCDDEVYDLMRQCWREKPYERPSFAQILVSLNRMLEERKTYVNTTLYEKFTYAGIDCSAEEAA
T2 sequence (P22607 23-806 K650E): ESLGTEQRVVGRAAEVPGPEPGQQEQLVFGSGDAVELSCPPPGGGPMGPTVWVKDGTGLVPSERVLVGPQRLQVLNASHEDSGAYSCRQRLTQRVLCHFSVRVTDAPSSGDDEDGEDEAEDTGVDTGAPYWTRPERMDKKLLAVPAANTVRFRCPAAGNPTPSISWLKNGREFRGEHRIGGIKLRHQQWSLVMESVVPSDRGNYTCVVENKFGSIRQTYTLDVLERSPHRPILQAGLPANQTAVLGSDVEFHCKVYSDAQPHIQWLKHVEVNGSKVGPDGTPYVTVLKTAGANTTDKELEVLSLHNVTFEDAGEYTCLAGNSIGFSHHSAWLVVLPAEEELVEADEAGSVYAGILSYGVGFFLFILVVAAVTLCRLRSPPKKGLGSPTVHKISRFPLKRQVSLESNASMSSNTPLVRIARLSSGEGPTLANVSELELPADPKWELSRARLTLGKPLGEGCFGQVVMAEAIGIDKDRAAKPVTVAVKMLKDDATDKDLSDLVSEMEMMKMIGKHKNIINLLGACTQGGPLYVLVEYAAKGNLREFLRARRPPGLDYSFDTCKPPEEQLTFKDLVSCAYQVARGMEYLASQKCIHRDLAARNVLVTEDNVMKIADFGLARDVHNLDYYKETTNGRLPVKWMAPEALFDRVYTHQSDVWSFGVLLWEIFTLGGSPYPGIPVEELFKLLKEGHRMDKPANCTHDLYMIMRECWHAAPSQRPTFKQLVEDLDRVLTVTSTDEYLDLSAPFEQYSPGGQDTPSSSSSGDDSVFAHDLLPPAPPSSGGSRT

Question: Which results are given for COc1cc2nccc(Oc3ccc(NC(=O)NC4CC4)c(Cl)c3)c2cc1C(N)=O [Lenvatinib, Lenvatinib mesilate]?
Answer: IC50 (FLT3): 4.1 µM; IC50 (FGFR3(K650E)): 0.11 µM; IC50 (TIE2): 2.5 µM; IC50 (8305C cells): 26 µM; IC50 [1]: > 10 µM; IC50 (VEGFR, FGFR, KIT, PDGFR): < 0.1 µM; MVD [2]: decreased significantly; MVD [3]: did not decrease the MVDs; MVD ([4]; 10 mg/kg): significantly decreased in 4 of the 5 DTC xenografts; MVD ([4]; 100 mg/kg, all of the 5): significantly decreased; IC50 (KIT(D816V)): > 10 µM; IC50 (PLK1): > 10 µM; IC50 (CDK4): > 10 µM
